Results: article PMC8200523, “Designing and Development of FRET-Based Nanosensor for Real Time Analysis of N-Acetyl-5-Neuraminic Acid in Living Cells” (Frontiers in Nutrition, 2021)

Legend:
[1] = target: FLIP-SA (ECFP-SiaP-Venus); sialic acid periplasmic binding protein SiaP (Haemophilus influenzae, UniProt P44542, D72K); conditions: PBS 20 mM, pH 6.5-7.0; sensor 0.20 mg/ml
[2] = target: FLIP-SA (ECFP-SiaP-Venus); sialic acid periplasmic binding protein SiaP (Haemophilus influenzae, UniProt P44542, R150D); conditions: PBS 20 mM, pH 6.5-7.0; sensor 0.20 mg/ml
FLIP-SA (ECFP-SiaP-Venus); sialic acid periplasmic binding protein SiaP (Haemophilus influenzae, UniProt P44542, R150D), sequence (P44542 24-329 R150D): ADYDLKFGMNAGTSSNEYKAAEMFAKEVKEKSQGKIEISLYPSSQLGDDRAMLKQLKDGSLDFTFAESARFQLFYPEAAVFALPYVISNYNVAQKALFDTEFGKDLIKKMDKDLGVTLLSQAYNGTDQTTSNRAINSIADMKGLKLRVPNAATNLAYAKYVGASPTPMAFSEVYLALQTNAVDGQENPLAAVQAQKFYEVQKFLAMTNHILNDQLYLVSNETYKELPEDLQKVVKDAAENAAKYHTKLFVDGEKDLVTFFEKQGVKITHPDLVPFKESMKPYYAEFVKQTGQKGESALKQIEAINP

[3] = target: T1, FLIP-SA (ECFP-SiaP-Venus); sialic acid periplasmic binding protein SiaP (Haemophilus influenzae, UniProt P44542); test: FRET ratio ([…] nm) titration of purified ECFP-SiaP-Venus sensor; conditions: PBS 20 mM, pH 6.5-7.0; sensor 0.20 mg/ml; NeuAc 1 nM-1 M; text prints ~157 μM
T1 construct: SiaP without signal peptide and stop codon, inserted at KpnI site between ECFP (N-term) and Venus (C-term); His6 tag of pRSET-B; E. coli BL21(DE3), Ni-NTA
T1 sequence (P44542 24-329): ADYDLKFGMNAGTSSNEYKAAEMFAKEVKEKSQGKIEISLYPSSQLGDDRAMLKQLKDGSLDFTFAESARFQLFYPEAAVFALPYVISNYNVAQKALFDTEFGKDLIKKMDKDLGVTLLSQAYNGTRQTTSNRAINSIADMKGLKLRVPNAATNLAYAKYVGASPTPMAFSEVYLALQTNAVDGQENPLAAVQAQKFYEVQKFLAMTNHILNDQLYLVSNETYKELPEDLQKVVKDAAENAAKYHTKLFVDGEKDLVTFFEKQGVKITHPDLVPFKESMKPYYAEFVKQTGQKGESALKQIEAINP

[4] = target: FLIP-SA (ECFP-SiaP-Venus); sialic acid periplasmic binding protein SiaP (Haemophilus influenzae, UniProt P44542, E90N); conditions: PBS 20 mM, pH 6.5-7.0; sensor 0.20 mg/ml
FLIP-SA (ECFP-SiaP-Venus); sialic acid periplasmic binding protein SiaP (Haemophilus influenzae, UniProt P44542, E90N), sequence (P44542 24-329 E90N): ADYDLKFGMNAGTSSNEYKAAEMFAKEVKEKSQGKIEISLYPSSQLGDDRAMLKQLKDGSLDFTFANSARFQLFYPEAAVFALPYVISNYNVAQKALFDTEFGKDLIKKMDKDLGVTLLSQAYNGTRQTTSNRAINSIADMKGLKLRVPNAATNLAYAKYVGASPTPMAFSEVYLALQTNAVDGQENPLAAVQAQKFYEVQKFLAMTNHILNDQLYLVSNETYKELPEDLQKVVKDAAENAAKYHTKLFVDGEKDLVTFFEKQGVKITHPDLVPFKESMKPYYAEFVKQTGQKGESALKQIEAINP

FLIP-SA (ECFP-SiaP-Venus); sialic acid periplasmic binding protein SiaP (Haemophilus influenzae, UniProt P44542, D72K), sequence (P44542 24-329 D72K): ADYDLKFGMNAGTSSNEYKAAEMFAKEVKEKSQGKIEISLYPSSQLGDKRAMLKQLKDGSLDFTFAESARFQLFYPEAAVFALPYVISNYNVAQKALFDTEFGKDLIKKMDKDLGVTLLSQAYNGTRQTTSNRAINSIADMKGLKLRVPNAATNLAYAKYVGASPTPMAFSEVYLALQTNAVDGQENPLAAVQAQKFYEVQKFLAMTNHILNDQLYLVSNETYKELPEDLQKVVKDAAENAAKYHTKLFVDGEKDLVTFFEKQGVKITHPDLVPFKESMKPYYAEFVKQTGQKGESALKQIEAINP

CC(=O)N[C@H]1[C@H]([C@H](O)[C@H](O)CO)OC(O)(C(=O)O)C[C@@H]1O (stereo partly shown) [NeuAc]
Kd [1]: 0.013 µM | Kd [2]: 0.51 µM | Kd [3]: 157 µM | Kd [4]: 600 µM
